Experimental data as given in ChEMBL document CHEMBL5726298, “Heteroaryl-pyrimidinone compounds as PDE2 inhibitors” (2019).
pKi: −log10 of the molar value.

Molecular target: T1, GMP-stimulated 3',5'-cyclic nucleotide phosphodiesterase (Macaca mulatta, UniProt B3VTJ2)
T1 sequence (B3VTJ2 whole entry): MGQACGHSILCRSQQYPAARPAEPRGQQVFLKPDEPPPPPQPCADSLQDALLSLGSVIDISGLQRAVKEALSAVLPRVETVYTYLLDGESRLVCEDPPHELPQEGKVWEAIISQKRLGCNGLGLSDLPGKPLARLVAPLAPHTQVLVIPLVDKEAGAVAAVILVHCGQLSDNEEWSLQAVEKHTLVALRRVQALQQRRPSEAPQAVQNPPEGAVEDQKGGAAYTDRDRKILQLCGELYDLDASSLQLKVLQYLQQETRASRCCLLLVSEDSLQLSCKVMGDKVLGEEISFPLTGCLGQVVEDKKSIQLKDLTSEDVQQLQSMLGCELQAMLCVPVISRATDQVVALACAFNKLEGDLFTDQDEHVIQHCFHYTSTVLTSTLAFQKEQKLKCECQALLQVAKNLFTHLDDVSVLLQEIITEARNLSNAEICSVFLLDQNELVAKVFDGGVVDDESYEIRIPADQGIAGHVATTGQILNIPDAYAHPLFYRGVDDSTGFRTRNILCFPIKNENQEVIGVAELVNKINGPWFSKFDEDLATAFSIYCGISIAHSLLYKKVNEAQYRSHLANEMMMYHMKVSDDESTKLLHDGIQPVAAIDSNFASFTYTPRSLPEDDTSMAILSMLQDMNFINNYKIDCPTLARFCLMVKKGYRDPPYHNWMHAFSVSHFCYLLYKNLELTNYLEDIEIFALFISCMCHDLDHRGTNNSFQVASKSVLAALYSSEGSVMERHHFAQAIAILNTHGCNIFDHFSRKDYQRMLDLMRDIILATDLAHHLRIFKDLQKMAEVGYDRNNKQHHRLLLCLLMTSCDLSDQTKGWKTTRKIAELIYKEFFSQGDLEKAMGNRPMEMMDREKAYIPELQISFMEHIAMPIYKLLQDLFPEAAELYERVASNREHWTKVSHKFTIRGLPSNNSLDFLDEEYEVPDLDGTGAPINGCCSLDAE
Assay: PDE2A3 assay: The activity of the compounds in accordance with the present invention as PDE2 inhibitors may be readily determined using a fluorescence polarization (FP) methodology (Huang, W., et al., J. Biomol Screen, 2002, 7: 215). […] Done in Lab A for rhPDE2A3.

pKi: 5.91
Compound: Cc1nc(-c2csc(C(C)c3ccc(C(F)(F)F)cc3)n2)cc(=O)[nH]1 (stereo unspecified)
